The values below come from ChEMBL document CHEMBL1131921, “Diamino benzo[b]thiophene derivatives as a novel class of active site directed thrombin inhibitors: 3. Enhancing activity by imposing conformational restriction in the C-4" side chain” (Bioorg Med Chem Lett, 1999).

The test concerns the target Prothrombin (Homo sapiens) (UniProt P00734). Put plainly: Binding affinity for human Prothrombin as apparent association constant (Kass).
Turning to `CCC(COc1ccc(Cc2c(-c3ccc(OCCN4CCCC4)cc3)sc3ccccc23)cc1)N1CCCC1` (configuration not stated), the K ass is 2.81e+07 l M-1.

As for `c1ccc2c(Cc3ccc(O[C@@H]4CCC[C@H]4N4CCCC4)cc3)c(-c3ccc(OCCN4CCCC4)cc3)sc2c1`, the K ass is 2.74e+07 l M-1.

Consider `c1ccc2c(Cc3ccc(CCCN4CCCC4)cc3)c(-c3ccc(OCCN4CCCC4)cc3)sc2c1`, for which the K ass is 6.7e+06 l M-1.

For the molecule `C(#Cc1ccc(Cc2c(-c3ccc(OCCN4CCCC4)cc3)sc3ccccc23)cc1)CN1CCCC1`, the K ass is 4.84e+06 l M-1.

For the molecule `CC(COc1ccc(Cc2c(-c3ccc(OCCN4CCCC4)cc3)sc3ccccc23)cc1)N1CCCC1` (configuration not stated), the K ass is 7.34e+06 l M-1.

Turning to `C(=C\c1ccc(Cc2c(-c3ccc(OCCN4CCCC4)cc3)sc3ccccc23)cc1)/CN1CCCC1` (stereo in doubt; cis), the K ass is 9.8e+06 l M-1.

`C[C@@H](COc1ccc(Cc2c(-c3ccc(OCCN4CCCC4)cc3)sc3ccccc23)cc1)N1CCCC1`: the K ass is 9.07e+06 l M-1.

`c1ccc2c(Cc3ccc(O[C@@H]4CCCC[C@H]4N4CCCC4)cc3)c(-c3ccc(OCCN4CCCC4)cc3)sc2c1`: the K ass is 2.4e+07 l M-1.

As to `C(=C\c1ccc(Cc2c(-c3ccc(OCCN4CCCC4)cc3)sc3ccccc23)cc1)/CN1CCCC1` (stereo in doubt; trans), the K ass is 1.32e+07 l M-1.

Regarding `CC(C)(COc1ccc(Cc2c(-c3ccc(OCCN4CCCC4)cc3)sc3ccccc23)cc1)N1CCCC1`, the K ass was 4.69e+06 l M-1.

Consider `C[C@H](COc1ccc(Cc2c(-c3ccc(OCCN4CCCC4)cc3)sc3ccccc23)cc1)N1CCCC1`, for which the K ass is 4.17e+06 l M-1.

Take `CCC(CN1CCCC1)Oc1ccc(Cc2c(-c3ccc(OCCN4CCCC4)cc3)sc3ccccc23)cc1` (configuration not stated): the K ass was 1.23e+07 l M-1.
